Columns and labels:
[1] = target: T1, Kv7.2/3 K+ channels (M-channels) (Homo sapiens, UniProt O43525+O43526); assay: Whole-cell patch-clamp of recombinant Kv7.2/3 channels in CHO cells; type: cell-based; settings: for M-channels (Kv7.2/Kv7.3) effect (opener / blocker / inactive): Kv7.2 and Kv7.3 coexpressed in CHO cells; for EC50: concentration-dependent left-shift ΔV50, sigmoidal fit, read-out: M-channel opener potency EC50; for ΔV50 (mV), left-shift in half-activation potential: Kv7.2/3 in CHO cells
T1 construct: expressed in transfected cells; host or cells: CHO cells
T1 sequence (O43526 whole entry): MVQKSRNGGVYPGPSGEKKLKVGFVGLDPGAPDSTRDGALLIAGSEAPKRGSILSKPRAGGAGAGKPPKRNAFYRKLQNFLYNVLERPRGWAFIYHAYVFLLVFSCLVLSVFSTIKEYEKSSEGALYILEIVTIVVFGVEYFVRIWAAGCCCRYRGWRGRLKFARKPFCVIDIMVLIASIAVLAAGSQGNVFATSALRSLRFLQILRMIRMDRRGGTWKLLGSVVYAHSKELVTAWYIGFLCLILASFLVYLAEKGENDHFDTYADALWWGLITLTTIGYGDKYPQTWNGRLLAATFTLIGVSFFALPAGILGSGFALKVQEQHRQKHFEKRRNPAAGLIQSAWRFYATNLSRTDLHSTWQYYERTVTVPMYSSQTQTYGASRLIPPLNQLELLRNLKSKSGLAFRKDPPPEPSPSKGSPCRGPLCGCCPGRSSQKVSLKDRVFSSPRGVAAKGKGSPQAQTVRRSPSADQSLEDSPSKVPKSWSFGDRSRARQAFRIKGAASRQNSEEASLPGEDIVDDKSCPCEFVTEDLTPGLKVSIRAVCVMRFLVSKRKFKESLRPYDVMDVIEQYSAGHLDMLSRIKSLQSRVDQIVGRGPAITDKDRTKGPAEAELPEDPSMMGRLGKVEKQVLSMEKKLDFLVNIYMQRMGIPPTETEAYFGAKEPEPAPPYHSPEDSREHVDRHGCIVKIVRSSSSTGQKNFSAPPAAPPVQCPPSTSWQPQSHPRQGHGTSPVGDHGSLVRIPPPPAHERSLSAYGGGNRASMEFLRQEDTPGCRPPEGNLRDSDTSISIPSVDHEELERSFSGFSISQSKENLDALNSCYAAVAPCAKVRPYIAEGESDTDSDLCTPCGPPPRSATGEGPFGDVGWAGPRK
T1 sequence (O43525 whole entry): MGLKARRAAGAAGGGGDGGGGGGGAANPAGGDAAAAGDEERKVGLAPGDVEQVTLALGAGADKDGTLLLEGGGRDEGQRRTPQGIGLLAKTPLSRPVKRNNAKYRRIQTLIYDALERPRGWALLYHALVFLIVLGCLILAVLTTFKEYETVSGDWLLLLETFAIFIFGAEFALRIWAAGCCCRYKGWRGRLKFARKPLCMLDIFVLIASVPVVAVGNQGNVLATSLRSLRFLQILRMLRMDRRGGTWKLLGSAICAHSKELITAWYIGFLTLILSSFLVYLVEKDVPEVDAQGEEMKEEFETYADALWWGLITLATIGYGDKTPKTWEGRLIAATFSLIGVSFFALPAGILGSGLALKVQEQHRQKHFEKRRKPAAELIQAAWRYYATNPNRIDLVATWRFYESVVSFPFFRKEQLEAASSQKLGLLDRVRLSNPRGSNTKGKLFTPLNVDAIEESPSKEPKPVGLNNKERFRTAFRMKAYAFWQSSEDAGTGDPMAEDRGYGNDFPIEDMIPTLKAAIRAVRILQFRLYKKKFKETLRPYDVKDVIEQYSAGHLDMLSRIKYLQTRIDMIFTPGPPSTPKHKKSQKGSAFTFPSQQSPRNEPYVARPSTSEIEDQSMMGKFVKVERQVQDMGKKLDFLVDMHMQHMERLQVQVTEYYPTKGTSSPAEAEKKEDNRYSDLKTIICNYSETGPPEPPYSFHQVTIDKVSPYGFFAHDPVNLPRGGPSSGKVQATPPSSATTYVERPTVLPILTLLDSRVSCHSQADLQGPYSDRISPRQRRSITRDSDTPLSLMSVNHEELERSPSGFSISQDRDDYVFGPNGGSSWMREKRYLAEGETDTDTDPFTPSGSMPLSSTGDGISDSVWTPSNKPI
Protocol: Chinese hamster ovary (CHO) cells were grown in Dulbecco's modified Eagle's medium (DMEM) supplemented with 2 mM glutamine, 10% fetal calf serum and antibiotics. Briefly, 40,000 cells seeded on poly-D-lysine-coated glass coverslips (13 mm diameter) in a 24-multiwell plate were transfected with pIRES-CD8 (0.5 µg) as a marker for transfection, and with Kv7.2 (0.5 µg) and Kv7.3 (0.5 µg). For electrophysiology, transfected cells were visualized approximately 40 hours following transfection, using anti-CD8 antibody-coated beads. Transfection was performed using Fugene 6 (Roche, Indianapolis IN, USA) according to the manufacturer's protocol.
Voltage-clamp recordings in CHO cells were performed, using the whole-cell configuration of the patch-clamp technique. Signals were amplified using an Axopatch 200B patch-clamp amplifier (Molecular Devices, Sunnyvale, CA), sampled at 2 kHz and filtered at 800 Hz via a 4-pole Bessel low pass filter. […] The patch pipettes were pulled from borosilicate glass (Warner Instrument Corp, USA) with a resistance of 2–5 MΩ. For K^+ current recordings in CHO cells, the intracellular pipette solution contained (in mM): 130 KCl, 1 MgCl2, 5 K2ATP, 5 EGTA, 10 HEPES, adjusted with KOH to pH 7.4 (290 mOsm). The extracellular solution contained (in mM): 140 NaCl, 4 KCl, 1.8 CaCl2, 1.2 MgCl2, 11 glucose, 5.5 HEPES, adjusted with NaOH to pH 7.4 (310 mOsm). Series resistances (3–13 MΩ) were compensated (75–90%) and periodically monitored.
Data analysis was performed using the Clampfit program (pClamp 9.2, Molecular Devices), Microsoft Excel (Microsoft) and Prism 4.0 (GraphPad). Chord conductance (G) was calculated by using the following equation: [drawing 1] where I corresponds to the current amplitude measured at the end of the pulse and Vrev, the calculated reversal potential. G was estimated at various test voltages V and then, normalized to a maximal conductance value, Gmax. Activation curves were fitted by one Boltzmann distribution: [drawing 2] where V50 is the voltage at which the current is half-activated and s is the slope factor. All data were expressed as mean±SEM. Statistically significant differences were assessed by Student's t-test. Analysis of sEPSCs and sIPSCs was done using the Clampfit program (pClamp 9.2, Molecular Devices) and included evaluation of the individual events as well as the average event amplitude and the integral of the event (total charge transfer).

[2] = system: COX enzymes (D122 mouse Lewis lung carcinoma cells); assay: COX inhibition, PGE2 production in D122 cells; type: cell-based; settings: average of two experiments in triplicate
Text: (§1) In addition, the aromatic rings of the diphenylamine moiety were substituted with different electron donating or withdrawing groups. In a first screen, two parameters were checked: (a) the non-selective inhibition of COX-1/COX-2 enzyme activities, measured by the production of PGE2 in cultured mouse colon adenocarcinoma (CT26) and mouse Lewis lung carcinoma cells (D122) cells; (b) the M-channel activity, measured by the heterologous coexpression of Kv7.2 and Kv7.3 subunits in Chinese hamster ovary (CHO) cells.
(§2) Mouse colon adenocarcinoma CT26 and mouse Lewis lung carcinoma D122 cells were grown in DMEM (D122) or RPMI (CT26) supplemented with 10% fetal calf serum, 4% glutamine, 1% penicillin-streptomycin-nystatin and 3% non essential amino acids (D122) and maintained in a humidified 37°C incubator with 5% CO2. For the COX assays, cells were grown onto 24 multiwell plates. Before the assay, cells were washed with serum-free medium; then tested compounds were added to the medium and incubated for 30 min at 37°C after which 30 µM arachidonic acid was added and incubated for additional 20 min. At the end of the incubations, 10 µM indomethacin was added to stop the reaction and medium was transferred to another 24 multiwell plate for measuring PGE2 production by radioimmunoassay (DuPont-NEN; Boston, MA) according to manufacturer protocol. Protein determination was assayed on scraped cells and was used to normalize the amount of PGE2 production. Assays with purified ovine COX-1 and human recombinant COX-2 were performed using the COX inhibitor screening assay (Cayman chemical company, Ann Arbor, MI), according to manufacturer protocol.

[3] = system: COX enzymes (CT26 mouse colon adenocarcinoma cells); assay: COX inhibition, PGE2 production in CT26 cells; type: cell-based; settings: for IC50: average of two experiments in triplicate, read-out: COX inhibition (IC50, µM) CT26
Text: as §1, §2

[4] = system: MES-induced tonic hind limb extension; assay: Maximal electroshock seizure (MES) model; type: in vivo, mouse; settings: mice, intraperitoneal, 30 min before electroshock; not shown
Protocol: This test is generally thought to be a model of generalized tonic-clonic seizure in human.
The anti-convulsant effect was measured by the maximal electroshock seizure model (MES) in ICR mice as previously described. The procedures followed for experimentation and maintenance of the animals were approved by the animal research ethics committee of Tel Aviv University and in accordance with the Guide for the Care and Use of Laboratory Animals (1996, National Academy of Sciences, Washington DC). Briefly, maximal electroshock was induced in adult mice by means of two transcorneal electrodes delivering an alternative current of 50 mA at 60 Hz for 0.2 sec using rodent shocker (Hugo Sachs Electronik, type 221). […] The drugs dissolved in 0.9% saline were administered intraperitoneally 30 min before the electroshock was performed. Animals failing to show tonic hind limb extension were scored as protected and were expressed in percentage.

SMILES | M-channels (Kv7.2/Kv7.3) effect (opener / blocker / inactive) [1] | EC50 [1] | further results
O=C(O)Cc1ccccc1Nc1c(Cl)cccc1Cl [Diclofenac, reference compound] | opener | 2.6 µM | M-channels (Kv7.2/Kv7.3) effect (opener / blocker / inactive) ([1]; listed as diclofenac): openers; IC50 [2]: 0.1 µM; IC50 [3]: 0.003 µM
CCCC(CCC)C(=O)O [sodium valproate] |  |  | dose that fully prevented hind limb extension [4]: 500 mg/kg
O=C(O)c1ccccc1Nc1cccc(C(F)(F)F)c1 [flufenamate, reference compound] | openers |  | 
Cc1cccc(Nc2ccccc2C(=O)O)c1C [mefenamate, reference compound] | openers |  | 
O=C1NC(=O)C(c2ccccc2)(c2ccccc2)N1 [phenytoin] |  |  | dose that fully prevented hind limb extension [4]: 20 mg/kg
O=C(Cc1cc([N+](=O)[O-])ccc1Nc1c(Cl)cccc1Cl)NCCO [Compound 7] | opener | 17 µM | ΔV50 (mV), left-shift in half-activation potential [1]: −12.2 mV; IC50 [2]: > 50 µM; effect on COX activity (Figure 1) [3]: completely unaffected; IC50 [3]: > 50 µM
Cc1ccc(Cl)c(Nc2ccccc2C(=O)O)c1Cl [Meclofenamic acid, reference compound] | opener | 25 µM | ΔV50 (mV), left-shift in half-activation potential [1]: −22.7 mV; M-channels (Kv7.2/Kv7.3) effect (opener / blocker / inactive) ([1]; listed as meclofenamate): openers

Now from value to compound, other results behind:

M-channels (Kv7.2/Kv7.3) effect (opener / blocker / inactive) [1] | EC50 [1] | SMILES | further results
do not activate |  | CC(C(=O)O)c1ccc(-c2ccccc2)c(F)c1 (stereo not shown) [flurbiprofen, reference compound] | 
do not activate |  | CC(C(=O)O)c1cccc(Oc2ccccc2)c1 (stereo not shown) [fenoprofen, reference compound] | 
do not activate |  | COc1ccc2cc([C@H](C)C(=O)O)ccc2c1 [naproxen, reference compound] | 
